This experiment addresses Platelet-activating factor receptor (Homo sapiens, UniProt P25105). In words: Antagonistic activity for inhibition of [3H]PAF receptor binding to washed human platelet membranes.

The record followed here is ChEMBL document CHEMBL1126425, “A partial pharmacophore for the platelet activating factor (PAF) receptor” (Bioorg Med Chem Lett, 1992).

pIC50: −log10 of the molar value.

As a reminder, the pIC50 is −log10 of the IC50, conventionally taken in molar units.

Sequence of Platelet-activating factor receptor (P25105 whole entry): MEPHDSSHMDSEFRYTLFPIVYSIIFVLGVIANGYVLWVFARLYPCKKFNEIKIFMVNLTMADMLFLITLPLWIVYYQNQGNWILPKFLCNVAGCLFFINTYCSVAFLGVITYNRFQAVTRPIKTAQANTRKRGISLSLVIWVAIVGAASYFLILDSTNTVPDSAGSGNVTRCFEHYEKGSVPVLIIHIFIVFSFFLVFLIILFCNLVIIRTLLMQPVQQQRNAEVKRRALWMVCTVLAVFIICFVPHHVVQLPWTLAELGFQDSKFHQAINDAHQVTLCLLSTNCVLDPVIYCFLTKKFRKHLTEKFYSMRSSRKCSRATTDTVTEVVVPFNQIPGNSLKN

With `O=C([C@@H]1CSC(c2cccnc2)N1)N1CCN(CCCc2ccccc2)CC1` (stereo partly drawn), the pIC50 is 8.64.

Molecule `CCOC[C@H](CC(C)C)NS(=O)(=O)c1ccc(Cn2c(C)nc3cnccc32)cc1` gave a pIC50 of 10.82.

For the molecule `Cc1nc2ccccc2n1Cc1ccc(C(=O)N(C)C2CCCCC2)cc1`, the pIC50 is 6.30.
